These results are taken from patent US8653075B2, “Therapeutic methods employing substituted piperidines which are CCR3 antagonists” (Boehringer Ingelheim International GmbH, priority 2009, dated 2014).

The assay concerns the target T1, human chemokine receptor CCR3 (Homo sapiens, UniProt P51677).
T1 construct: expressed in transfected cells; host or cells: K562 cell line (hCCR3-C1 cells), membrane preparation
T1 sequence (P51677 1-355): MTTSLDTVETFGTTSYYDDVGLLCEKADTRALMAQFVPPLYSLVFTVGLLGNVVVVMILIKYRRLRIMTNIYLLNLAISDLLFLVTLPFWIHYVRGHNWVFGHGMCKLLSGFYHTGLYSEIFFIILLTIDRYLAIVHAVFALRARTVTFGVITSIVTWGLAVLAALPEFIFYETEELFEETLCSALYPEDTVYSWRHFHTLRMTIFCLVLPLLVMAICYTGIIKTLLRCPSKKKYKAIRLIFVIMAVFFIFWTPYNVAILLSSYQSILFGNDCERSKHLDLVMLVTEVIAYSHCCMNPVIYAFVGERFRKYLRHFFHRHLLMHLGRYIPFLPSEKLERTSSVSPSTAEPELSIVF
Description: CCR3 receptor binding assay (SPA, 125I-eotaxin-1 displacement, hCCR3-C1 K562 cell membranes). The note with it: human Eotaxin-1 at human CCR3-Rezeptor; for inhibition at 1 µM: 1 μM test compound, read-out: CCR3 % inh @ 1 μM; for Ki: dose range 0.1 to 10000 nM. As to the method: The CCR3 receptor binding test is based on a K562 cell line (leukemia myelogenic blast cells) transfected with the human chemokine receptor CCR3 (hCCR3-C1 cells). The cell membranes were prepared by disrupting the hCCR3-C1 cells by […]. The preparation was centrifuged at 400 g 4° C. for 30 min. The supernatant was transferred into fresh tubes followed by a second centrifugation at 48000 g, 4° C. for 1 h. The membranes were re-suspended in the SPA incubation buffer (25 mM HEPES, 25 mM MgCl2 6×H2O, 1 mM CaCl2 2×H2O) without bovine serum albumin and homogenized by passing through a single use needle (Terumo, 23Gx1″). The membranes were stored in aliquots at −80° C.
The CCR3 receptor binding assay was performed in a Scintillation Proximity Assay (SPA) design with the radioligand recombinant human ^125Iodine-eotaxin-1. Cell membranes of hCCR3 C1 cells were again homogenized by passing through a single use needle (Terumo, 23Gx1″) and diluted in SPA incubation buffer in suitable concentrations (0.5-10 μg protein/well) in 96 well microtiter plates (1450-514, Perkin Elmer). The SPA assay was set up in the SPA incubation buffer with a final volume of 200 μl and final concentration of 25 mM HEPES, 25 mM MgCl2 6×H2O, 1 mM CaCl2 2×H2O and 0.1% bovine serum albumin. The SPA assay mixture contained 60 μl of the membrane suspension, 80 μl of Wheat Germ Agglutinin coated PVT beads (organic scintillator, GE Healthcare, RPNQ-0001) 0.2 mg/well), 40 μl of recombinant human ^125Jodine-eotaxin-1 (Biotrend), diluted in SPA buffer to a final concentration of 30.000 dpm per well, and 20 μl of the test compound (dissolved in DMSO dilutions). The SPA assay mixture was incubated for 2 h at room temperature. Bound radioactivity was determined with a scintillation counter (Micro Beta “Trilux”, Wallac). Included were controls for total binding (no displacer added, Bo) and non-specific binding (NSB) by adding unlabelled recombinant human Eotaxin-1 (Biotrend, Cat #300-21) or a reference compound.
Determination of the affinity of a test compound was calculated by subtraction of the non-specific binding (NSB) from the total binding (Bo) or the binding in the presence of the test compound (B) at a given compound concentration. […] The Bo-NSB value was set to 0% inhibition.
% inhibition and Ki values are (human Eotaxin-1 at human CCR3-Rezeptor): […]

A word on the Ki: it is a dissociation constant, usually derived from enzyme kinetics or from competition with a known ligand. Read a high Ki as weaker binding. Turning to `Cc1cc(CN2CCC(N3C(=O)N(C)C[C@H]3C(=O)Nc3cccc(-c4nc[nH]n4)c3)CC2)ccc1Cl` [Example 126], the inhibition at 1 µM worked out at 89% and the inhibitory constant (Ki) was determined as 0.071 µM.
The corresponding values for `COc1ccc(NC(=O)[C@H]2CCC(=O)N2C2CCN(Cc3ccc(Cl)c(C)c3)CC2)cc1C(=O)N(C)C` [Example 179] are 95% and 0.034 µM.
For the molecule `Cc1cccc(NC(=O)[C@@H]2CCC(=O)N2C2CCN(Cc3ccc(Cl)c(C)c3)CC2)n1` [Example 40], the inhibition at 1 µM was found to be 75% and the affinity corresponds to a Ki of 0.229 µM.
As to `Cc1cc(C(=O)N(C)C)cc(NC(=O)[C@H]2CCC(=O)N2C2CCN(Cc3ccc(Cl)c(Cl)c3)CC2)n1` [Example 115], the inhibition at 1 µM is 80% and the affinity, expressed as Ki, was 0.018 µM.
Take `Cc1cc(C)n(-c2ccnc(NC(=O)[C@H]3CCC(=O)N3C3CCN(Cc4ccc(Cl)c(C)c4)CC3)c2)n1` [Example 102]: the inhibition at 1 µM amounted to 100% and the Ki came out at 0.019 µM.
For `Cc1cc(CN2CCC(N3C(=O)CC[C@@H]3C(=O)Nc3cccc(-c4nc[nH]n4)c3)CC2)ccc1Cl` [Example 16] the same measures were 98% and 0.02 µM.
The corresponding values for `CCOC(=O)c1nnc(NC(=O)[C@H]2CCC(=O)N2C2CCN(Cc3ccc(Cl)c(C)c3)CC2)s1` [Example 3] are 75% and 0.24 µM.
As to `Cc1cc(CN2CCC(N3C(=O)CC[C@H]3C(=O)N3CCc4cccc(C(F)(F)F)c4C3)CC2)ccc1Cl` [Example 56], the inhibition at 1 µM worked out at 76% and the inhibition constant (Ki) worked out at 0.254 µM.
The corresponding values for `Cc1cc(CN2CCC(N3C(=O)CC[C@@H]3C(=O)Nc3cccc(C(=O)N(C)C(C)C)c3)CC2)ccc1Cl` [Example 133] are 100% and 0.003 µM.
In the case of `Cc1cc(NC(=O)[C@H]2CCC(=O)N2C2CCN(Cc3ccc(Cl)c(C)c3)CC2)cc(C(=O)N(C)C)c1` [Example 167], the inhibition at 1 µM was 98% and the Ki was found to be 0.006 µM.
Regarding `Cc1cc(CN2CCC(N3C(=O)CC[C@H]3C(=O)Nc3cccc(Cc4ccncc4)c3)CC2)ccc1Cl` [Example 66], the inhibition at 1 µM stood at 81% and the Ki is 0.658 µM.
For `CNC(=O)c1cc(NC(=O)[C@H]2CCC(=O)N2C2CCN(Cc3ccc(Cl)c(C)c3)CC2)cc(OC)c1` [Example 174] the same measures were 99% and 0.013 µM.
The corresponding values for `Cc1cc(CN2C3CCC2CC(N2C(=O)CC[C@@H]2C(=O)Nc2cccc(N(CC(=O)N(C)C)S(C)(=O)=O)c2)C3)ccc1Cl` (stereo partly shown) [Example 76] are 97% and 0.037 µM.
Take `CCN(CCO)C(=O)c1cccc(NC(=O)[C@H]2CCC(=O)N2C2CCN(Cc3ccc(Cl)c(C)c3)CC2)c1` [Example 156]: the inhibition at 1 µM worked out at 98% and the affinity, expressed as Ki, was 0.015 µM.
For `CCS(=O)(=O)N(CC(=O)N(C)C)c1cccc(NC(=O)[C@H]2CCC(=O)N2C2CC3CCC(C2)N3Cc2ccc(Cl)c(C)c2)c1` (stereo partly shown) [Example 79] the same measures were 91% and 0.052 µM.
The corresponding values for `Cc1cc(CN2CCC(N3C(=O)CC[C@@H]3C(=O)Nc3cccc(C(=O)N4CCC4)c3)CC2)ccc1Cl` [Example 152] are 100% and 0.012 µM.
As to `CCN(C)S(=O)(=O)c1cccc(NC(=O)[C@H]2CCC(=O)N2C2CCN(Cc3ccc(Cl)c(C)c3)CC2)c1` [Example 20], the inhibition at 1 µM is 97% and the inhibitory constant (Ki) amounted to 0.009 µM.
Turning to `Cc1cc(CN2CCC(N3C(=O)CC[C@H]3C(=O)N3CCc4ccc(F)cc4C3)CC2)ccc1Cl` [Example 73], the inhibition at 1 µM amounted to 48% and the Ki came out at 0.922 µM.
For `Cc1cc(CN2CCC(N3C(=O)CC[C@H]3C(=O)NCc3ccc(Cl)nc3C)CC2)ccc1Cl` [Example 70] the same measures were 46% and 0.791 µM.
For `CC(=O)Nc1nc2c(s1)-c1cc(NC(=O)[C@H]3CCC(=O)N3C3CCN(Cc4ccc(Cl)c(C)c4)CC3)ccc1CC2` [Example 10] the same measures were 98% and 0.016 µM.
